From US11396518B2, “Solid forms of thiophene derivatives” (TIANJIN HEMAY PHARMACEUTICAL CO., LTD., priority 2018, dated 2022) come the findings set out here.

What all share (format): physicochemical
Data set [1] can be described thus: Dissolution rate in water. The note with it: about 25 mg in 900 mL of water, 37° C., rotating speed 100/minute. As to the method:
An amorphous solid form of (S)—N-[5-[1-(3-ethoxy-4-methoxyphenyl)-2-(methylsulfonyl)ethyl]-4,6-dioxo-5,6-dihydro-4H-thieno[3,4-c]pyrrole-1-yl]acetamide prepared according to the process in Example 1 was tested.
About 25 mg of the amorphous solid form of (S)—N-[5-[1-(3-ethoxy-4-methoxyphenyl)-2-(methylsulfonyl)ethyl]-4,6-dioxo-5,6-dihydro-4H-thieno[3,4-c]pyrrole-1-yl]acetamide was added to 900 mL of water. The mixture was stirred at a rotating speed of 100/minute at 37° C. for 90 minutes. The supernatant was filtered and diluted. The concentration of the diluted solution (a mg/mL) was determined by ultraviolet spectrophotometer. The dissolution rate was calculated according to the formula 900a/25×100%.

Data set [2] can be described thus: Grinding stability (XRPD after grinding). The procedure: An amorphous solid form of (S)—N-[5-[1-(3-ethoxy-4-methoxyphenyl)-2-(methylsulfonyl)ethyl]-4,6-dioxo-5,6-dihydro-4H-thieno[3,4-c]pyrrole-1-yl]acetamide prepared according to the process of Example 1 was ground in a glass mortar for 5 minutes. The ground samples were tested with XRPD.
The nature of data set [3]: Pressure stability (DSC after tablet pressing). The note with it: tablet press machine with single punch, tablet diameter 6 mm, hardness 25-30 N. As to the method: An amorphous solid form of (S)—N-[5-[1-(3-ethoxy-4-methoxyphenyl)-2-(methylsulfonyl)ethyl]-4,6-dioxo-5,6-dihydro-4H-thieno[3,4-c]pyrrole-1-yl]acetamide was pressed by tablet press machine with single punch. The diameter of the tablet was 6 mm and the hardness was 25-30 N. DSC test was carried out on pressed powder.

Data set [4] is described as follows: Hygroscopicity (XRPD after moisture absorption at RH=80%). The procedure:
Hygroscopicity of an amorphous solid form of (S)—N-[5-[1-(3-ethoxy-4-methoxyphenyl)-2-(methylsulfonyl)ethyl]-4,6-dioxo-5,6-dihydro-4H-thieno[3,4-c]pyrrole-1-yl]acetamide was studied. The amorphous solid form of (S)—N-[5-[1-(3-ethoxy-4-methoxyphenyl)-2-(methylsulfonyl)ethyl]-4,6-dioxo-5,6-dihydro-4H-thieno[3,4-c]pyrrole-1-yl]acetamide was placed in a drier containing saturated ammonium chloride solution (RH=80%) until weight was balanced. The crystal form was tested with XRPD.
An amorphous solid form of (S)—N-[5-[1-(3-ethoxy-4-methoxyphenyl)-2-(methylsulfonyl)ethyl]-4,6-dioxo-5,6-dihydro-4H-thieno[3,4-c]pyrrole-1-yl]acetamide prepared according to the process of Example 1 was tested.

Each structure is given as a SMILES string.

As to `CCOc1cc([C@@H](CS(C)(=O)=O)N2C(=O)c3csc(NC(C)=O)c3C2=O)ccc1OC` [amorphous solid form, (S)—N-[5-[1-(3-ethoxy-4-methoxyphenyl)-2-(methylsulfonyl)ethyl]-4,6-dioxo-5,6-dihydro-4H-thieno[3,4-c]pyrrole-1-yl]acetamide], the “Dissolution Rate (%)” value in data set [1] (Time 0 min) is on record as 0%; in data set [1] (Time 15 min) it was 38.3%; in data set [1] (Time 30 min), 54.9%; in data set [1] (Time 45 min) it was 72.8%; in data set [1] (Time 60 min) it was 63.7%. In data set [2] (Grinding in a glass mortar for 5 minutes), the “Crystal Form after Grinding” value is “Amorphous”. Further, the “Grinding stability (conclusion in words)” value in data set [2] (ground in a glass mortar for 5 minutes) is recorded as “good grinding stability”. Moreover, the “DSC curve of pressed powder compared with FIG. 2” value in data set [3] was “substantially identical”. For the same compound, the “Pressure stability (conclusion in words)” value in data set [3] is listed as “good stability”. The “Moisture absorption stability (conclusion in words)” value in data set [4] (RH=80% until weight was balanced) was “good moisture absorption stability”. Besides, the “Crystal Form after Absorbing Moisture” value in data set [4] (drier with saturated ammonium chloride solution (RH=80%) until weight was balanced) was “Amorphous”.
